Measurements: patent publication US9789086B1, “N-(5-arylamido-2-methylphenyl)-5-methylisooxazole-4-carboxamide deravative, pharmaceutical acceptable salt thereof, method for preparation therof and FMS kinase inhibitor comprising the same as anactive ingredient” (Industry-University Cooperation Foundation Hanyang …, priority 2014, dated 2017)

How the values were obtained:
[1] = tested on: U937 cell line; test: U937 cell line proliferation inhibitory activity (MTT assay); format: cell-based; details: Homo sapiens, U-937, U937 cells
Experimental: (§1) In order to measure cell viability, MTT [3-(4,5-dimethylthiazole-2-yl)-2,5-diphenyltetrazolium bromide] activity assay method (Thiazolyl Blue Tetrazolium Bromide, Sigma Aldrich) was used. Cell lines were cultured in 96-well plates for 24 hours and treated with the compounds of Examples previously prepared. For the compound treatment, 10 mM stocks were prepared, serially diluted in DMSO and added by 0.5 μL at 8 points (final concentration of 0.5%). The cell lines in plates treated with the compounds was cultured for 48 hours, then 15 μL of dye was added to each well and cultured for 4 hours. Then, 100 μL of DMSO solvent was added to each well, and the formed solid was dissolved to measure the absorbance. The absorbance was read at a wavelength of 570 nm using EnVision 2103, and the GI 50 value was calculated using GraphPad Prism 4.0 software, and the results are shown in Table 1 below.
U937 cell lines were purchased from ATCC and cultured in a RPMI culture medium (containing 10% FBS, 1% penicillin/streptomycin and 25 mM HEPES) in the presence of 5% CO2 at 37° C. The cell line proliferation inhibitory activity for Examples previously prepared was measured using the same MTT activity assay method as the A375P cell line proliferation inhibitory activity assay in Experimental Example 1.

[2] = tested on: A375P cell line; test: A375P cell line proliferation inhibitory activity (MTT assay); format: cell-based; details: A375P cells, 48 hours treatment
Experimental: A375P cell lines were purchased from ATCC and cultured in a DMEM culture medium (containing 10% FBS and 1% penicillin/streptomycin) in the presence of 5% CO2 at 37° C. The cultured A375P cell lines were taken from culture substrate with 0.05% trypsin-0.02% EDTA and plated at a density of 5×10^3 cells per well in 96-well plates.
as §1

Compound | GI50 [1] [µM] | GI50 [2] [µM]
Cc1ccc(NC(=O)Cc2ccc(-c3ccccc3)cc2)cc1NC(=O)c1cnoc1C [Example 22, N-(5-(2-(biphenyl-4-yl)acetamido)-2-methylphenyl)-5-methylisoxazole-4-carboxamide] | 10 to 30 | 10 to 30
Cc1ccc(NC(=O)c2cccc(Cl)c2)cc1NC(=O)c1cnoc1C [Example 6, N-(5-(3-chlorobenzamido)-2-methylphenyl)-5-methylisoxazole-4-carboxamide] | 10 to 30 | 10 to 30
Cc1cc(NC(=O)Nc2ccc(Cl)cc2)ccc1NC(=O)c1cnoc1C [Example 39, N-(4-(3-(4-chlorophenyl)ureido)-2-methylphenyl)-5-methylisoxazole-4-carboxamide] | 10 to 30 | 10 to 30
Cc1ccc(NC(=O)Cc2ccccc2F)cc1NC(=O)c1cnoc1C [Example 8, N-(5-(2-(2-fluorophenyl)acetamido)-2-methylphenyl)-5-methylisoxazole-4-carboxamide] | 10 to 30 | 10 to 30
Cc1ccc(NC(=O)Nc2ccc(Cl)c(C(F)(F)F)c2)cc1NC(=O)c1cnoc1C [Example 30, N-(5-(3-(4-chloro-3-(trifluoromethyl)phenyl)ureido)-2-methylphenyl)-5-methylisoxazole-4-carboxamide] | 10 to 30 | 10 to 30
Cc1ccc(NC(=O)Nc2cc(Cl)cc(Cl)c2)cc1NC(=O)c1cnoc1C [Example 33, N-(5-(3-(3,5-dichlorophenyl)ureido)-2-methylphenyl)-5-methylisoxazole-4-carboxamide] | 10 to 30 | 10 to 30
Cc1ccc(NC(=O)Cc2c[nH]c3ccccc23)cc1NC(=O)c1cnoc1C [Example 16, N-(5-(2-(1H-indol-3-yl)acetamido)-2-methylphenyl)-5-methylisoxazole-4-carboxamide] | 10 to 30 | 10 to 30
Cc1ccc(NC(=O)Nc2ccc(Cl)c(Cl)c2)cc1NC(=O)c1cnoc1C [Example 34, N-(5-(3-(3,4-dichlorophenyl)ureido)-2-methylphenyl)-5-methylisoxazole-4-carboxamide] | 1 to 10 | 10 to 30
Cc1ccc(NC(=O)C(c2ccc(Cl)cc2)c2ccc(Cl)cc2)cc1NC(=O)c1cnoc1C [Example 13, N-(5-(2,2-bis(4-chlorophenyl)acetamido)-2-methylphenyl)-5-methylisoxazole-4-carboxamide] | 10 to 30 | 10 to 30
Cc1ccc(NC(=O)c2cnn(-c3ccccc3)c2C(F)(F)F)cc1NC(=O)c1cnoc1C [Example 23, 5-methyl-N-(2-methyl-5-(1-phenyl-5-(trifluoromethyl)-1H-pyrazole-4-carboxamido)phenyl)isoxazole-4-carboxamide] | < 1 | 10 to 30
Cc1cc(NC(=O)Nc2cc(Cl)cc(Cl)c2)ccc1NC(=O)c1cnoc1C [Example 41, N-(4-(3-(3,5-dichlorophenyl)ureido)-2-methylphenyl)-5-methylisoxazole-4-carboxamide] | 10 to 30 | 10 to 30
Cc1cc(NC(=O)Nc2ccc(Cl)c(C(F)(F)F)c2)ccc1NC(=O)c1cnoc1C [Example 35, N-(4-(3-(4-chloro-3-(trifluoromethyl)phenyl)ureido)-2-methylphenyl)-5-methylisoxazole-4-carboxamide] | 10 to 30 | 10 to 30
Cc1ccc(NC(=O)c2ccncc2)cc1NC(=O)c1cnoc1C [Example 20, N-(5-(isonicotinamido)-2-methylphenyl)-5-methylisoxazole-4-carboxamide] | 10 to 30 | 10 to 30
Cc1cc(NC(=O)c2cc(N3CCN(C)CC3)cc(C(F)(F)F)c2)ccc1NC(=O)c1cnoc1C [Example 2, 5-methyl-N-(2-methyl-4-(3-(4-methylpiperazin-1-yl)-5-(trifluoromethyl)benzamido)phenyl)isoxazole-4-carboxamide] | 10 to 30 | 10 to 30
Cc1ccc(NC(=O)c2cc(N3CCN(C)CC3)cc(C(F)(F)F)c2)cc1NC(=O)c1cnoc1C [Example 3, 5-methyl-N-(2-methyl-5-(3-(4-methylpiperazin-1-yl)-5-(trifluoromethyl)benzamido)phenyl)isoxazole-4-carboxamide] | < 1 | 10 to 30
Cc1ccc(NC(=O)Nc2ccc(Cl)cc2)cc1NC(=O)c1cnoc1C [Example 28, N-(5-(3-(4-chlorophenyl)ureido)-2-methylphenyl)-5-methylisoxazole-4-carboxamide] | 10 to 30 | 10 to 30

Compound | GI50 [1] [µM] | GI50 [2] [µM]
Cc1ccc(NC(=O)c2cc(-n3cncc3C)cc(C(F)(F)F)c2)cc1NC(=O)c1cnoc1C [Example 10, 5-methyl-N-(2-methyl-5-(3-(5-methyl-1H-imidazol-1-yl)-5-(trifluoromethyl)benzamido)phenyl)isoxazole-4-carboxamide] | < 1 | 10 to 30
Cc1cc(NC(=O)Nc2cccc(Cl)c2)ccc1NC(=O)c1cnoc1C [Example 37, N-(4-(3-(3-chlorophenyl)ureido)-2-methylphenyl)-5-methylisoxazole-4-carboxamide] | 10 to 30 | 10 to 30
Cc1cn(-c2cc(C(=O)Nc3ccc(C)c(NC(=O)c4cnoc4C)c3)cc(C(F)(F)F)c2)cn1 [Example 11, 5-methyl-N-(2-methyl-5-(3-(4-methyl-1H-imidazol-1-yl)-5-(trifluoromethyl)benzamido)phenyl)isoxazole-4-carboxamide] | < 1 | 10 to 30
Cc1ccc(NC(=O)Nc2ccccc2F)cc1NC(=O)c1cnoc1C [Example 31, N-(5-(3-(2-fluorophenyl)ureido)-2-methylphenyl)-5-methylisoxazole-4-carboxamide] | 10 to 30 | 10 to 30
Cc1ccc(NC(=O)c2ccc(N3CCOCC3)c(C(F)(F)F)c2)cc1NC(=O)c1cnoc1C [Example 4, 5-methyl-N-(2-methyl-5-(4-morpholino-3-(trifluoromethyl)benzamido)phenyl)isoxazole-4-carboxamide] | < 1 | 10 to 30
Cc1ccc(NC(=O)c2cc(-n3ccnc3C)cc(C(F)(F)F)c2)cc1NC(=O)c1cnoc1C [Example 9, 5-methyl-N-(2-methyl-5-(3-(2-methyl-1H-imidazol-1-yl)-5-(trifluoromethyl)benzamido)phenyl)isoxazole-4-carboxamide] | < 1 | 10 to 30
Cc1ccc(NC(=O)c2ccccc2Sc2ccccc2C#N)cc1NC(=O)c1cnoc1C [Example 21, N-(5-(2-(2-cyanophenylthio)benzamido)-2-methylphenyl)-5-methylisoxazole-4-carboxamide] | 10 to 30 | 10 to 30
Cc1cc(NC(=O)Nc2ccc(Cl)c(Cl)c2)ccc1NC(=O)c1cnoc1C [Example 40, N-(4-(3-(3,4-dichlorophenyl)ureido)-2-methylphenyl)-5-methylisoxazole-4-carboxamide] | 10 to 30 | 1 to 10
Cc1ccc(NC(=O)c2ccc(-c3ccccc3)cc2)cc1NC(=O)c1cnoc1C [Example 26, N-(5-biphenyl-4-ylcarboxamido-2-methylphenyl)-5-methylisoxazole-4-carboxamide] | 10 to 30 | 10 to 30
Cc1ccc(NC(=O)C2(C)CCc3c(C)c(O)c(C)c(C)c3O2)cc1NC(=O)c1cnoc1C (stereo not shown) [Example 14, N-(5-(6-hydroxy-2,5,7,8-tetramethylchroman-2-carboxamido)-2-methylphenyl)-5-methylisoxazole-4-carboxamide] | 10 to 30 | 10 to 30
Cc1ccc(NC(=O)c2cnc3ccccc3c2)cc1NC(=O)c1cnoc1C [Example 27, 5-methyl-N-(2-methyl-5-(quinoline-3-carboxamido)phenyl)isoxazole-4-carboxamide] | 10 to 30 | 10 to 30
Cc1cc(NC(=O)Nc2ccccc2F)ccc1NC(=O)c1cnoc1C [Example 38, N-(4-(3-(2-fluorophenyl)ureido)-2-methylphenyl)-5-methylisoxazole-4-carboxamide] | 10 to 30 | 10 to 30
Cc1ccc(NC(=O)Nc2cccc(Cl)c2)cc1NC(=O)c1cnoc1C [Example 32, N-(5-(3-(3-chlorophenyl)ureido)-2-methylphenyl)-5-methylisoxazole-4-carboxamide] | 10 to 30 | 10 to 30
CC(=O)N1CCC(C(=O)Nc2ccc(C)c(NC(=O)c3cnoc3C)c2)CC1 [Example 15, N-(5-(1-acetylpiperidine-4-carboxamido)-2-methylphenyl)-5-methylisoxazole-4-carboxamide] | 10 to 30 | 10 to 30
Cc1cc(C)cc(C(=O)Nc2ccc(C)c(NC(=O)c3cnoc3C)c2)c1 [Example 24, N-(5-(3,5-dimethylbenzamido)-2-methylphenyl)-5-methylisoxazole-4-carboxamide] | 1 to 10 | 10 to 30
Cc1ccc(NC(=O)c2cc(N3CCOCC3)cc(C(F)(F)F)c2)cc1NC(=O)c1cnoc1C [Example 44, 5-methyl-N-(2-methyl-5-(3-morpholino-5-(trifluoromethyl)benzamido)phenyl)isoxazole-4-carboxamide] | < 1 | 10 to 30
